B1: CD80: costimulatory molecule incorporated into DNA vaccines (protein, UniProt P33681 35-288, looked up)
T-lymphocyte activation …: VIHVTKEVKEVATLSCGHNVSVEELAQTRIYWQKEKKMVLTMMSGDMNIWPEYKNRTIFDITNNLSIVILALRPSDEGTYECVVLKYEKDAFKREHLAEVTLSVKADFPTPSISDFEIPTSNIRRIICSTSGGFPEPHLSWLENGEELNAINTTVSQDPETELYAVSSKLDFNMTTNHSFMCLIKYGHLRVNQTFNWNTTKQEHFPDNLLPSWAITLISVNGIFVICCLTYCFAPRCRERRRNERLRRESVRPV
B2: CD40L: costimulatory molecule incorporated into DNA vaccines (protein, UniProt P29965 113-261, looked up)
CD40 ligand, soluble form: MQKGDQNPQIAAHVISEASSKTTSVLQWAEKGYYTMSNNLVTLENGKQLTVKRQGLYYIYAQVTFCSNREASSQAPFIASLCLKSPGRFERILLRAANTHSSAKPCGQQSIHLGGVFELQPGASVFVNVTDPSQVSHGTGFTSFGLLKL
B3: IL-7: cytokine incorporated into DNA vaccines (protein, UniProt P13232 26-177, looked up)
Interleukin-7: DCDIEGKDGKQYESVLMVSIDQLLDSMKEIGSNCLNNEFNFFKRHICDANKEGMFLFRAARKLRQFLKMNSTGDFDLHLLKVSEGTTILLNCTGQVKGRKPAALGEAQPTKSLEENKSLKEQKKLNDLCFLKRLLQEIKTCWNKILMGTKEH
B4: CD54: costimulatory molecule incorporated into DNA vaccines (protein, UniProt P05362 28-532, looked up)
Intercellular adhesion …: QTSVSPSKVILPRGGSVLVTCSTSCDQPKLLGIETPLPKKELLLPGNNRKVYELSNVQEDSQPMCYSNCPDGQSTAKTFLTVYWTPERVELAPLPSWQPVGKNLTLRCQVEGGAPRANLTVVLLRGEKELKREPAVGEPAEVTTTVLVRRDHHGANFSCRTELDLRPQGLELFENTSAPYQLQTFVLPATPPQLVSPRVLEVDTQGTVVCSLDGLFPVSEAQVHLALGDQRLNPTVTYGNDSFSAKASVSVTAEDEGTQRLTCAVILGNQSQETLQTVTIYSFPAPNVILTKPEVSEGTEVTVKCEAHPRAKVTLNGVPAQPLGPRAQLLLKATPEDNGRSFSCSATLEVAGQLIHKNQTRELRVLYGPRLDERDCPGNWTWPENSQQTPMCQAWGNPLPELKCLKDGTFPLPIGESVTVTRDLEGTYLCRARSTQGEVTRKVTVNVLSPRYEIVIITVVAAAVIMGTAGLSTYLYNRQRKIKKYRLQQAQKGTPMKPNTQATPP
B5: LFA-3: costimulatory molecule incorporated into DNA vaccines (protein, UniProt P19256 29-250, looked up)
Lymphocyte …: FSQQIYGVVYGNVTFHVPSNVPLKEVLWKKQKDKVAELENSEFRAFSSFKNRVYLDTVSGSLTIYNLTSSDEDEYEMESPNITDTMKFFLYVLESLPSPTLTCALTNGSIEVQCMIPEHYNSHRGLIMYSWDCPMEQCKRNSTSIYFKMENDLPQKIQCTLSNPLFNTTSSIILTTCIPSSGHSRHRYALIPIPLAVITTCIVLYMNGILKCDRKPDRTNSN
B6: CD86: costimulatory molecule incorporated into DNA vaccines (protein, UniProt P42081 24-329, looked up)
T-lymphocyte activation …: APLKIQAYFNETADLPCQFANSQNQSLSELVVFWQDQENLVLNEVYLGKEKFDSVHSKYMGRTSFDSDSWTLRLHNLQIKDKGLYQCIIHHKKPTGMIRIHQMNSELSVLANFSQPEIVPISNITENVYINLTCSSIHGYPEPKKMSVLLRTKNSTIEYDGVMQKSQDNVTELYDVSISLSVSFPDVTSNMTIFCILETDKTRLLSSPFSIELEDPQPPPDHIPWITAVLPTVIICVMVFCLILWKWKKKKRPRNSYKCGTNTMEREESEQTKKREKIHIPERSDEAQRVFKSSKTSSCDKSDTCF

Test system: NF-κB
Assay: Preliminary work: NF-κB induction and APC/DC function
Format: cell-based
Details: not given
For MEKK1: kinase named as NF-κB inducer, the “induction of NF-κB and enhancement of APC/DC function” value was “can induce NF-κB and enhance APC such as DC function”.

Test system: CD14+ peripheral blood monocytes cultured to DC
Assay: Maturation of monocyte-derived dendritic cells to CD83+ cells
Format: cell-based
Details: 15 ng/ml, within 1 day
Method: CD14^+ peripheral blood monocytes are adhered to tissue culture flasks and cultured in the presence of 1% AB serum, GM-CSF (400 ng/ml) and IL-4 (400 IU/ml) for 7 days. This yields cells with the morphology of DC and a mean of 49% with the CD1a^+ marker which is indicative of the immature form of the DC capable of taking up and presenting antigen. These cells are then matured to CD83^+ cells by the addition of TNFα (15 ng/ml), which enables the DC to present antigen to cytotoxic T-cells. 7% of the cells become CD83^+ within 1 day, but 3 days at least are required for maximum effect. It is possible that monocyte conditioned medium could replace the 1% AB serum but this is probably not desirable.
For TNFα, the “cells becoming CD83+” value was 7%.

Test system: not given
Assay: not given
Details: molecule incorporated into DNA vaccine; cited from earlier work
In the case of “CTLA4: costimulatory molecule incorporated into DNA vaccines”, the Cellular response is listed as “↑proliferation”. In the case of “GM-CSF: cytokine incorporated into DNA vaccines”, the CTL is given as “↑CTL”. In the case of “IFNγ: cytokine incorporated into DNA vaccines”, the CTL is given as “↑CTL”. In the case of “IL-5: cytokine incorporated into DNA vaccines”, the Antibody is given as “↑IgG”. For “IL-15: cytokine incorporated into DNA vaccines”, the Antibody is listed as “IgG?”, the CTL is listed as “↑CTL” and the Cellular response is listed as “±↑proliferation”. For “IL-18: cytokine (gene) incorporated into DNA vaccines”, the Antibody is given as “↑IgG”, the CTL is given as “↑CTL” and the Cellular response is given as “↑proliferation”. For TGF-β, the Antibody is listed as “↑IgG1”. In the case of B1, the CTL is given as “↑CTL”. For B2, the CTL is listed as “↑CTL” and the Cellular response is listed as “↑IFNγ”. For B3, the Cellular response is given as “↑IFNγ”. In the case of B4, the CTL is given as “↑CTL”. For B5, the CTL is given as “↑CTL”. For B6, the CTL is given as “↑CTL”.

Test system: mice
Assay: not given
Details: gene incorporated into allergen DNA vector; cited from earlier work
For “IL-18: cytokine (gene) incorporated into DNA vaccines”, the airway hyperresponsiveness is listed as “successfully reverse airway hyperresponsiveness”.

Reference: US20040241152A1, “Methods for inducing an immune response with an elevated th1/th2 ratio, by intracellular induction of nfkappab” (priority 2001, published 2004)
